Target: T1, AMPK protein (recombinant α1β1γ2) (Homo sapiens, UniProt Q13131+Q9Y478)
T1 construct: made in house; host or cells: E. coli
Assay: AMPK enzymatic activity (Delfia, AMARA peptide)
Type: biochemical
Details: compound 30 μM vs AMP 30 μM; 125 μM ATP; 30 min room temperature; ratio 90% or higher = direct activator
Experimental: The following biological test allows the determination of the efficacy of such compounds of formula (I) onto AMPK protein (recombinant α1β1γ2).
Human recombinant AMPK enzyme was expressed in E. Coli and was reactivated in vitro by LKB1 prior to enzyme activity determination.
AMPK enzyme activities were assayed by using A Delfia technology. AMPK enzyme activities were carried out in microtiter plates (50 mM Hepes buffer, pH 7.4 with 125 μM ATP respectively) in the presence of a synthetic peptide substrate (AMARAASAAALARRR, the “AMARA” peptide) and activators in serial dilutions. Reactions were initiated by the addition of AMPK (50-100 ng). Following mixing, the plates were incubated for 30 min at room temperature. Enzyme activity was assayed by using an anti-phosphoserine antibody to measure the quantity of phosphate incorporated into the AMARAA.
Ratio between the % of control (basal activity) of compound of formula (I) at 30 μM and the % of control (basal activity) of AMP (natural substrate) at 30 μM. Compounds of formula (I) in the table II are considered as direct activator of AMPK if the ratio is 90% or higher.

T1 sequence (Q13131 whole entry): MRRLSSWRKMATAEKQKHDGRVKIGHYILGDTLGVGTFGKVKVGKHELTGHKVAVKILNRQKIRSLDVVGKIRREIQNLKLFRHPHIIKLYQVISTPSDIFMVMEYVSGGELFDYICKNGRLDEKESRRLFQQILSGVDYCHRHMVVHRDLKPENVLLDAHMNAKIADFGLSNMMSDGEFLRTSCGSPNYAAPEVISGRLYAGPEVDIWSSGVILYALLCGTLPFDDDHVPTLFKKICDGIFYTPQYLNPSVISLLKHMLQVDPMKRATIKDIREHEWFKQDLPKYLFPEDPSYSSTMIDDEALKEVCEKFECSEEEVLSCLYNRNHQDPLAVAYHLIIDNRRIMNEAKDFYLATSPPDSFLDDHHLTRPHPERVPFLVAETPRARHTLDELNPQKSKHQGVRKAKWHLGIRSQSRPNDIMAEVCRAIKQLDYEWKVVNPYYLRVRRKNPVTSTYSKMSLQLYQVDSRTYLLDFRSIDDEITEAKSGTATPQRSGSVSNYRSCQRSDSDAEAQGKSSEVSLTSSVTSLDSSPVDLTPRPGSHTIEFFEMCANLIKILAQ
T1 sequence (Q9Y478 whole entry): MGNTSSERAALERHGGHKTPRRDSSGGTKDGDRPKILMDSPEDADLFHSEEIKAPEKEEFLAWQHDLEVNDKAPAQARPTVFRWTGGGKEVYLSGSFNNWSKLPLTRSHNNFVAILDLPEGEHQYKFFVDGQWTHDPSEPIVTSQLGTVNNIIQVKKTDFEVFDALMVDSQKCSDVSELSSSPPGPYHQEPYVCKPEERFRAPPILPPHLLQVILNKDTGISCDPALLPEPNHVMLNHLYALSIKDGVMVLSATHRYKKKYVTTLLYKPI
T1 sequence (Q9UGJ0 whole entry partner): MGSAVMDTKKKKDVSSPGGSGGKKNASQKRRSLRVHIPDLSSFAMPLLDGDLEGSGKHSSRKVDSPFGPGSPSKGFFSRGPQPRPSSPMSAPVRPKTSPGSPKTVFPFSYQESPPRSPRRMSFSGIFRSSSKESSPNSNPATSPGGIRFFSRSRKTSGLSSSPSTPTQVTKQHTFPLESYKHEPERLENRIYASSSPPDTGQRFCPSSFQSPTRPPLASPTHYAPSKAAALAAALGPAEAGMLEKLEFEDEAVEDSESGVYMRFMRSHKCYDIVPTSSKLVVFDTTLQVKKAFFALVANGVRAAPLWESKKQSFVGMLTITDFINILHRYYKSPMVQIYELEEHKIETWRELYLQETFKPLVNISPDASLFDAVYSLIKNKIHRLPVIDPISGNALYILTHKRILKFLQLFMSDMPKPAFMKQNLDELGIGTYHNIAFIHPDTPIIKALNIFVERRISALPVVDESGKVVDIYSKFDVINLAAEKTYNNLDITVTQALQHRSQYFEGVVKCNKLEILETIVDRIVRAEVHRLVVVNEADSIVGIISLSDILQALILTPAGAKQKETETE

activity: Ratio between the % of control (basal activity) of compound of formula (I) at 30 μM and the % of control (basal activity) of AMP at 30 μM [%]	Structure (SMILES)
138	O=c1[nH]c2sc(Cl)c(-c3ccc(-c4ccccc4O)cc3)c2c(O)c1-c1ccccc1 [Compound 5, 2-chloro-4-hydroxy-3-(2′-hydroxybiphenyl-4-yl)-5-phenyl-6,7-dihydro-thieno[2,3-b]pyridin-6-one]
153	O=c1[nH]c2scc(-c3ccc(-c4cccc(F)c4)cc3)c2c(O)c1-c1ccccc1 [Compound 10, 3-(3′-fluorobiphenyl-4-yl)-4-hydroxy-5-phenyl-6,7-dihydro-thieno[2,3-b]pyridin-6-one]
139	O=c1[nH]c2scc(-c3ccc(-c4ccc(O)cc4)cc3)c2c(O)c1-c1ccccc1 [Compound 12, 4-hydroxy-3-(4′-hydroxybiphenyl-4-yl)-5-phenyl-6,7-dihydro-thieno[2,3-b]pyridin-6-one]
206	O=c1[nH]c2scc(-c3ccc(-c4ccc(F)cc4)cc3)c2c(O)c1-c1ccccc1 [Compound 13, 3-(4′-fluorobiphenyl-4-yl)-4-hydroxy-5-phenyl-6,7-dihydro-thieno[2,3-b]pyridin-6-one]
176	Cc1ccc(-c2ccc(-c3csc4[nH]c(=O)c(-c5ccccc5)c(O)c34)cc2)cc1 [Compound 14, 4-hydroxy-3-(4′-methylbiphenyl-4-yl)-5-phenyl-6,7-dihydro-thieno[2,3-b]pyridin-6-one]
101	O=c1[nH]c2scc(-c3ccc(-c4ccc(C(F)(F)F)cc4)cc3)c2c(O)c1-c1ccccc1 [Compound 16, 4-hydroxy-5-phenyl-3-(4′-trifluoromethylbiphenyl-4-yl)-6,7-dihydro-thieno[2,3-b]pyridin-6-one]
116	N#Cc1cccc(-c2ccc(-c3csc4[nH]c(=O)c(-c5ccccc5)c(O)c34)cc2)c1 [Compound 17, 3-(3′-cyanobiphenyl-4-yl)-4-hydroxy-5-phenyl-6,7-dihydro-thieno[2,3-b]pyridin-6-one]
217	N#Cc1ccc(-c2ccc(-c3csc4[nH]c(=O)c(-c5ccccc5)c(O)c34)cc2)cc1 [Compound 19, 3-(4′-cyanobiphenyl-4-yl)-4-hydroxy-5-phenyl-6,7-dihydro-thieno[2,3-b]pyridin-6-one]
187	O=c1[nH]c2scc(-c3ccc(-c4ccc(F)cc4O)cc3)c2c(O)c1-c1ccccc1 [Compound 21, 3-(4′-fluoro-2′-hydroxybiphenyl-4-yl)-4-hydroxy-5-phenyl-6,7-dihydro-thieno[2,3-b]pyridin-6-one]
163	O=c1[nH]c2scc(-c3ccc(-c4ccc(F)cc4)cc3)c2c(O)c1-c1ccncc1 [Compound 23, 3-(4′-fluorobiphenyl-4-yl)-4-hydroxy-5-pyridin-4-yl-6,7-dihydro-thieno[2,3-b]pyridin-6-one]
191	Cc1ccc(-c2ccc(-c3csc4[nH]c(=O)c(-c5ccncc5)c(O)c34)cc2)cc1 [Compound 24, 4-hydroxy-3-(4′-methylbiphenyl-4-yl)-5-pyridin-4-yl-6,7-dihydro-thieno[2,3-b]pyridin-6-one]
154	COC(=O)c1ccc(-c2ccc(-c3csc4[nH]c(=O)c(-c5ccncc5)c(O)c34)cc2)cc1 [Compound 25, Methyl 4′-(4-hydroxy-6-oxo-5-pyridin-4-yl-6,7-dihydro-thieno[2,3-b]pyridin-3-yl)biphenyl-4-carboxylate]
258	O=c1[nH]c2scc(-c3ccc(-c4ccccc4)cc3)c2c(O)c1-c1ccncc1 [Compound 26, 3-biphenyl-4-yl-4-hydroxy-5-pyridin-4-yl-6,7-dihydro-thieno[2,3-b]pyridin-6-one]
199	O=c1[nH]c2scc(-c3ccc(-c4ccoc4)cc3)c2c(O)c1-c1ccncc1 [Compound 27, 3-[4-(3-furyl)phenyl]-4-hydroxy-5-pyridin-4-yl-6,7-dihydro-thieno[2,3-b]pyridin-6-one]
246	O=c1[nH]c2scc(-c3ccc(-c4ccccc4O)cc3)c2c(O)c1-c1ccncc1 [Compound 28, 4-hydroxy-3-(2′-hydroxybiphenyl-4-yl)-5-pyridin-4-yl-6,7-dihydro-thieno[2,3-b]pyridin-6-one]
213	O=c1[nH]c2scc(-c3ccc(-c4ccc(O)cc4)cc3)c2c(O)c1-c1ccncc1 [Compound 29, 4-hydroxy-3-(4′-hydroxybiphenyl-4-yl)-5-pyridin-4-yl-6,7-dihydro-thieno[2,3-b]pyridin-6-one]
212	O=c1[nH]c2scc(-c3ccc(-c4ccncc4)cc3)c2c(O)c1-c1ccncc1 [Compound 30, 4-hydroxy-5-pyridin-4-yl-3-(4-pyridin-4-ylphenyl)-6,7-dihydro-thieno[2,3-b]pyridin-6-one]
143	O=c1[nH]c2scc(-c3ccc(-c4ccccc4O)cc3)c2c(O)c1-c1cccnc1 [Compound 31, 4-hydroxy-3-(2′-hydroxybiphenyl-4-yl)-5-pyridin-3-yl-6,7-dihydro-thieno[2,3-b]pyridin-6-one]
159	O=c1[nH]c2scc(-c3ccc(-c4ccccc4F)cc3)c2c(O)c1-c1cccnc1 [Compound 32, 3-(2′-fluorobiphenyl-4-yl)-4-hydroxy-5-pyridin-3-yl-6,7-dihydro-thieno[2,3-b]pyridin-6-one]
147	O=c1[nH]c2scc(-c3ccc(-c4cccc(F)c4)cc3)c2c(O)c1-c1cccnc1 [Compound 33, 3-(3′-fluorobiphenyl-4-yl)-4-hydroxy-5-pyridin-3-yl-6,7-dihydro-thieno[2,3-b]pyridin-6-one]
165	O=c1[nH]c2scc(-c3ccc(-c4ccc(F)cc4)cc3)c2c(O)c1-c1cccnc1 [Compound 34, 3-(4′-fluorobiphenyl-4-yl)-4-hydroxy-5-pyridin-3-yl-6,7-dihydro-thieno[2,3-b]pyridin-6-one]
168	Cc1ccc(-c2ccc(-c3csc4[nH]c(=O)c(-c5cccnc5)c(O)c34)cc2)cc1 [Compound 37, 4-hydroxy-3-(4′-methylbiphenyl-4-yl)-5-pyridin-3-yl-6,7-dihydro-thieno[2,3-b]pyridin-6-one]
145	O=c1[nH]c2scc(-c3ccc(-c4ccoc4)cc3)c2c(O)c1-c1cccnc1 [Compound 38, 4-hydroxy-3-[4-(3-furyl)phenyl]-5-pyridin-3-yl-6,7-dihydro-thieno[2,3-b]pyridin-6-one]
147	O=c1[nH]c2scc(-c3ccc(-c4cccc(CO)c4)cc3)c2c(O)c1-c1cccnc1 [Compound 39, 4-hydroxy-3-(3′-hydroxymethylbiphenyl-4-yl)-5-pyridin-3-yl-6,7-dihydro-thieno[2,3-b]pyridin-6-one]
162	O=c1[nH]c2scc(-c3ccc(-c4cccnc4)cc3)c2c(O)c1-c1cccnc1 [Compound 40, 4-hydroxy-5-pyridin-3-yl-3-(4-pyridin-3-ylphenyl)-6,7-dihydro-thieno[2,3-b]pyridin-6-one]
107	COc1cc(F)ccc1-c1ccc(-c2csc3[nH]c(=O)c(-c4ccccc4)c(O)c23)cc1 [Compound 42, 3-(4′-fluoro-2′-methoxybiphenyl-4-yl)-4-hydroxy-5-phenyl-6,7-dihydro-thieno[2,3-b]pyridin-6-one]
139	O=c1[nH]c2scc(-c3ccc(-c4ccc(O)cc4O)cc3)c2c(O)c1-c1ccccc1 [Compound 43, 4-hydroxy-3-(2′,4′-dihydroxybiphenyl-4-yl)-5-phenyl-6,7-dihydro-thieno[2,3-b]pyridin-6-one]
120	COc1cc(-c2csc3[nH]c(=O)c(-c4ccccc4)c(O)c23)ccc1-c1ccccc1 [Compound 45, 4-hydroxy-3-(2-methoxybiphenyl-4-yl)-5-phenyl-6,7-dihydro-thieno[2,3-b]pyridin-6-one]
